Reference: article PMC5556071, “ATR inhibition facilitates targeting of leukemia dependence on convergent nucleotide biosynthetic pathways” (Nature Communications, 2017)
Values joined by “and” are separate entries in the source; they are usually repeats but may differ in a detail not shown here. Equal values may be shown once.

Tested on: CEM cells
Assay: Non-targeted LC-MS metabolite profiling: percent [13C6]glucose labeling and relative metabolite levels
Type: cell-based, human
Settings: CEM cells, 12 h following release from G1 arrest, replicates #1-#6
Text: To further investigate the functions of dCK and ATR at the G1/S transition in CEM cells, a non-targeted liquid chromatography mass spectrometry (LC-MS) assay was used to determine the utilization of labeled [^13C6]glucose and [^13C9,^15N3]deoxycytidine, the main substrates for de novo and salvage nucleotide biosynthesis, respectively. Of the 166 metabolites identified in CEM cells treated with VE-822 and/or dCKi, 105 metabolites found in all four treatment groups contained glucose-derived ^13C atoms. […] These metabolites included intermediates such as rUTP, rCTP and rCDP in the de novo dCTP biosynthesis (Fig. 1d). […] However, several deoxyribonucleotides, including dCTP, were below the limit of detection of the non-targeted LC-MS approach, raising the concern that the sensitivity of this assay is not sufficient to measure the contribution of the salvage pathway or the ratio of de novo and salvage biosynthesis to these pools. To address this problem, a newly developed targeted MS assay was developed (Fig. 1e and Supplementary Fig. 3). In this assay, samples containing either extracted dNTPs or hydrolyzed DNA from labeled cells are separated by LC for detection by a triple quadrupole mass spectrometer using multiple reaction monitoring (LC-MS/MS-MRM). The first (Q1) and third (Q3) quadrupoles function as mass filters, while the second (Q2) quadrupole serves as a collision chamber (Fig. 1e). For instance, to profile the biosynthetic composition of deoxycytidine (dC) derived from hydrolyzed DNA or dCTP, an intact, protonated dC ion is selected in Q1, followed by fragmentation of the glycosidic bond, which releases protonated cytosine in Q2, that is filtered in Q3 and detected to generate an ion chromatogram. The peak areas for the ion chromatograms of salvage [^13C9,^15N3]dC (red trace), de novo [^13C5]dC (black trace, from [^13C6]glucose) and unlabeled dC (gray trace) (Fig. 1e) are used to determine the relative contributions of the de novo and salvage routes both to dCTP pools and to DNA-incorporated dCTP.
Cells were transferred into RPMI-1640 without glucose and supplemented with 10% dialyzed FBS (Gibco) containing the following labeled substrates: precursors for de novo [U-^13C6]glucose (Sigma-Aldrich, 389374) at 11 mM; precursors for purine salvage [U-^13C10,^15N5]dA (Cambridge Isotopes, CIL 3896), [^15N5]dA (Cambridge Isotopes, NLM-3895) and [^15N5]dG (Cambridge Isotopes, NLM-3899) at 5 µM or as indicated; and precursors for pyrimidine salvage: [U-^13C9,^15N3]dC (Silantes, 124603602) and [U-^13C10,^15N2]dT (Cambridge Isotopes, CNLM-3902) at 5 µM and [^15N2]orotate (Cambridge Isotopes, NLM-1048) at indicated concentrations. The cells were incubated for 12 h or as indicated before sample collection and processing. […]
Non-targeted LC-MS metabolic assays. 1 x 10^6 cells were washed with ice-cold 150 mM ammonium acetate twice before adding 1 mL of ice-cold 80% methanol with 10 nM norvaline as an internal standard. After vigorous vortexing, samples were centrifuged at maximum speed, the aqueous layer was transferred to a glass vial and the metabolites were dried under vacuum. Metabolites were resuspended in 50 μL 70% acetonitrile (ACN) and 5 μL of this solution used for the mass spectrometer-based analysis. The analysis was performed on a Q Exactive (Thermo Scientific) in polarity-switching mode with positive voltage 4.0 kV and negative voltage 4.0 kV. The mass spectrometer was coupled to an UltiMate 3000RSLC (Thermo Scientific) UHPLC system. Mobile phase A was 5 mM ammonium acetate (NH4AcO), pH 9.9, B was acetonitrile and the separation achieved on a Luna […] NH2 100 A column (150 × 2.0 mm, Phenomenex). The flow was 200 μL/min, and the gradient ran from 15% A to 95% A in 18 min, followed by an isocratic step for 9 min and re-equilibration for 7 min. Metabolites were detected and quantified as area under the curve based on retention time and accurate mass (≤ 3 p.p.m.) using the TraceFinder 3.1 (Thermo Scientific). Relative amounts of […]

[1] = metabolite Asp (C00049), listed as V
[2] = metabolite Carnitine (C00318), listed as V
[3] = metabolite G3P (KEGG C00118), listed as V
[4] = metabolite G6P-F6P (KEGG C00668), listed as V
[5] = metabolite GABA (KEGG C00334), listed as V
[6] = metabolite GDP (KEGG C00035), listed as V
[7] = metabolite GMP (KEGG C00144), listed as V
[8] = metabolite GSH (KEGG C00051), listed as V
[9] = metabolite GSSG (KEGG C00127), listed as V
[10] = metabolite GTP (KEGG C00044), listed as V
[11] = metabolite Glc (KEGG C00031), listed as V
[12] = metabolite GlcA (KEGG C00257), listed as V
[13] = metabolite GlcN-6P (KEGG C00352), listed as V
[14] = metabolite GlcNAc-6P (KEGG C00357), listed as V

Q: Which “Relative level, Asn” value (metabolite Asn (C00152), listed as V) does the source give for `CNCc1ccc(-c2cc(-c3nc(-c4ccc(S(=O)(=O)C(C)C)cc4)cnc3N)on2)cc1` [VE-822] here?
A: 1.3 and 1.4 (2×) and 0.9 (3×)

Q: What about the “Glucose labeling, Asp” value [1] of the same compound?
A: 22.64% and 22.44% and 22.12% and 21.45% and 21.35% and 21.96%

Q: And the “Relative level, Asp” value [1]?
A: 1.8 and 1.3 and 1.4 and 1.5 and 0.9 and 1.0

Q: What about the “Glucose labeling, C” value (metabolite C (D07769), listed as V) of the same compound?
A: 0.35% and 0.24% and 0.32% and 0.34% and 0.00758% and 0.36%

Q: And the “Relative level, C” value (metabolite C, listed as V)?
A: 1.9 (2×) and 2.0 and 1.8 and 2.3 and 2.5

Q: What about the “Glucose labeling, Carnitine” value [2] of the same compound?
A: 0.0372% and 0.00375% and 0.00443% and 0.00282% and 0.06% and 0.00331%

Q: And the “Relative level, Carnitine” value [2]?
A: 0.9 and 1.0 (2×) and 0.7 (2×) and 0.8

Q: What about the “Glucose labeling of G3P” value [3] of the same compound?
A: 58.87% and 0.0369% (3×) and 100.00% (2×)

Q: What about the “Relative level of G3P” value [3] of the same compound?
A: 0.952 and 0.6 (2×) and 0.2 and 0.456

Q: What about the “Glucose labeling of G6P-F6P” value [4] of the same compound?
A: 88.15% and 86.27% and 90.17% and 83.23% and 85.62% and 81.44%

Q: And the “Relative level of G6P-F6P” value [4]?
A: 4.7 and 2.5 and 3.5 and 1.9 and 1.1 and 1.0

Q: And the “Glucose labeling of GABA” value [5]?
A: 0.05% and 0.04% and 0.0737% (4×)

Q: What about the “Relative level of GABA” value [5] of the same compound?
A: 0.9 (2×) and 1.0 and 0.4 (2×) and 0.5

Q: What about the “Glucose labeling of GDP” value [6] of the same compound?
A: 66.45% and 57.13% and 62.54% and 65.67% and 61.42% and 68.88%

Q: What about the “Relative level of GDP” value [6] of the same compound?
A: 2.9 and 0.7 and 1.2 and 1.1 and 0.647 and 0.351

Q: And the “Glucose labeling of GMP” value [7]?
A: 67.56% and 73.95% and 70.72% and 64.86% and 56.63% and 63.18%

Q: And the “Relative level of GMP” value [7]?
A: 3.6 and 1.9 (2×) and 2.2 and 0.527 and 0.431

Q: And the “Glucose labeling of GSH” value [8]?
A: 22.37% and 21.90% and 25.59% and 18.14% and 18.31% and 18.93%

Q: And the “Relative level of GSH” value [8]?
A: 1.4 and 1.1 and 0.9 and 0.6 and 0.557 and 0.5

Q: What about the “Glucose labeling of GSSG” value [9] of the same compound?
A: 41.97% and 38.91% and 39.41% and 36.66% and 34.27% and 31.20%

Q: What about the “Relative level of GSSG” value [9] of the same compound?
A: 1.0 (2×) and 0.9 and 0.7 and 0.553 and 0.533

Q: And the “Glucose labeling of GTP” value [10]?
A: 66.00% and 75.98% and 68.76% and 65.13% and 72.51% and 69.15%

Q: What about the “Relative level of GTP” value [10] of the same compound?
A: 1.6 and 0.4 (2×) and 0.8 and 0.9 and 0.378

Q: And the “Glucose labeling of Glc” value [11]?
A: 85.14% and 89.26% and 81.87% and 76.15% and 74.50% and 90.17%

Q: What about the “Relative level of Glc” value [11] of the same compound?
A: 1.6 and 2.4 and 1.4 and 0.9 (2×) and 3.6

Q: What about the “Glucose labeling of GlcA” value [12] of the same compound?
A: 10.98% and 10.19% and 12.71% and 10.94% and 11.47% and 12.23%

Q: And the “Relative level of GlcA” value [12]?
A: 0.9 and 0.6 and 0.566 and 0.5 and 0.3 (2×)

Q: And the “Glucose labeling of GlcN” value (metabolite GlcN (KEGG C00329))?
A: 0.18%

Q: What about the “Relative level of GlcN” value (metabolite GlcN (KEGG C00329), listed as V) of the same compound?
A: 0.9 and 1.4 and 1.6 and 1.1 and 0.8 and 1.7

Q: What about the “Glucose labeling of GlcN-6P” value [13] of the same compound?
A: 6.56% and 5.43% and 4.48% and 7.20% and 4.32% and 4.29%

Q: And the “Relative level of GlcN-6P” value [13]?
A: 0.65 and 0.8 and 0.6 and 0.7 (2×) and 0.653

Q: And the “Glucose labeling of GlcNAc-6P” value [14]?
A: 39.94% and 9.75% and 47.59% and 56.84% and 49.88% and 50.30%

Q: What about the “Relative level of GlcNAc-6P” value [14] of the same compound?
A: 0.8 and 0.37 and 0.9 and 1.0 and 0.533 and 0.4
